Test results from US8993752B2, “Neprilysin inhibitors” (Theravance Biopharma R&D IP, LLC, priority 2011, dated 2015).

Biological target: T1, human NEP (Homo sapiens, UniProt P08473)
T1 construct: purchased R&D Systems, Minneapolis, Minn; 1182-ZN
Assay: In vitro enzyme inhibition assay at human NEP (fluorogenic peptide substrate)
Format: biochemical
Conditions: recombinant human NEP; substrate Mca-D-Arg-Arg-Leu-Dap-(Dnp)-OH 10 μM; 37° C.; values given as ranges; read-out: pKi values at human NEP (converted)
Method in brief: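 Recombinant human NEP pre-incubated 30 min at 37 °C with compound (10 μM to 20 pM), then 10 μM Mca-D-Arg-Arg-Leu-Dap-(Dnp)-OH in 50 mM HEPES pH 7.5, 100 mM NaCl, 0.01% Tween-20, 10 μM ZnSO4. Stopped after 20 min with acetic acid, fluorescence read at 320/405 nm; Ki from nonlinear fit, reported as pKi.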

T1 sequence (P08473 whole entry): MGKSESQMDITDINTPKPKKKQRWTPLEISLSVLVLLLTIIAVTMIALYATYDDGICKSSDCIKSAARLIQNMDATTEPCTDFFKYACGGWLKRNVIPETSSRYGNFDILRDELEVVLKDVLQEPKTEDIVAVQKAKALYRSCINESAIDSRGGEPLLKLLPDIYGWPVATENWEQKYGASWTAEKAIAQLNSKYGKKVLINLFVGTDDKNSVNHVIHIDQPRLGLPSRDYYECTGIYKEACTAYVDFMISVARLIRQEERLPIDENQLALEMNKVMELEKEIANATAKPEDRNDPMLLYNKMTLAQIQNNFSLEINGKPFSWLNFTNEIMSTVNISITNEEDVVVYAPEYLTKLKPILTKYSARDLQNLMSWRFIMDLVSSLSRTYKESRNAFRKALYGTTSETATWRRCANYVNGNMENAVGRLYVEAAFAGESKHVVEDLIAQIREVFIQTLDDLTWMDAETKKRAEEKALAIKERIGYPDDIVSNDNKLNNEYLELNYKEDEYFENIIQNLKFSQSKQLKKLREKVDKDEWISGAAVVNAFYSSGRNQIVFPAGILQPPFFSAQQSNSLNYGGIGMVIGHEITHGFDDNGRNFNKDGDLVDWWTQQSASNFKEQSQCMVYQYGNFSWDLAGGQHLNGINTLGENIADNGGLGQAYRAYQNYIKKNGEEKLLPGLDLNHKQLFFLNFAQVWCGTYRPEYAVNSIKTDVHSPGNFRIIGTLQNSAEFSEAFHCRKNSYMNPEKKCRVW

Ki [nM]	Compound
12.6 to 100	CCCCCCn1nc(C(=O)N[C@@H](CC(=O)O)Cc2ccccc2Cl)cc1C(=O)O [Example 11-8, 5-[(R)-2-Carboxy-1-(2-chloro-benzyl)-ethylcarbamoyl]-2-hexyl-2H-pyrazole-3-carboxylic acid]
12.6 to 100	O=C(O)C[C@@H](Cc1ccccc1Cl)NC(=O)c1cc(C(=O)O)n(CC(=O)O)n1 [Example 11-9, 5-[(R)-2-Carboxy-1-(2-chloro-benzyl)-ethylcarbamoyl]-2-carboxymethyl-2H-pyrazole-3-carboxylic acid]
12.6 to 100	CC(Cn1nc(C(=O)N[C@@H](CC(=O)O)Cc2ccccc2Cl)cc1C(=O)O)C(=O)O (stereo partly drawn) [Example 11-10, 5-[(R)-2-Carboxy-1-(2-chloro-benzyl)-ethylcarbamoyl]-2-(2-carboxy-propyl)-2H-pyrazole-3-carboxylic acid]
12.6 to 100	O=C(O)C[C@@H](Cc1ccccc1Cl)NC(=O)c1cc(C(=O)O)n(Cc2ccncc2)n1 [Example 11-11, 5-[(R)-2-Carboxy-1-(2-chloro-benzyl)-ethylcarbamoyl]-2-pyridin-4-ylmethyl-2H-pyrazole-3-carboxylic acid]

Further lines, the molecule ahead of its results:

Compound	Ki [nM]
O=C(O)C[C@@H](Cc1ccccc1C(F)(F)F)NC(=O)c1cc(C(=O)O)[nH]n1 [Example 12, 5-[(R)-2-Carboxy-1-(2-trifluoromethylbenzyl)-ethylcarbamoyl]-2H-pyrazole-3-carboxylic Acid]	12.6 to 100
Cc1ccccc1C[C@H](CC(=O)O)NC(=O)c1cc(C(=O)O)[nH]n1 [Example 13, 5-((R)-1-Carboxymethyl-2-o-tolyl-ethylcarbamoyl)-2H-pyrazole-3-carboxylic Acid]	12.6 to 100
